From patent publication US10106538B2, “Inhibitors of protein kinases” (PRINCETON DRUG DISCOVERY INC, priority 2015, dated 2018)

Columns and labels:
Assay in all cases: Off-chip Mobility Shift Assay (MSA) kinase inhibition
Format in all cases: biochemical
MST2 = biological target: T1, MST2 (Homo sapiens, UniProt Q13188)
T1 construct: purchased Carna Biosciences
T1 sequence (Q13188 1-491): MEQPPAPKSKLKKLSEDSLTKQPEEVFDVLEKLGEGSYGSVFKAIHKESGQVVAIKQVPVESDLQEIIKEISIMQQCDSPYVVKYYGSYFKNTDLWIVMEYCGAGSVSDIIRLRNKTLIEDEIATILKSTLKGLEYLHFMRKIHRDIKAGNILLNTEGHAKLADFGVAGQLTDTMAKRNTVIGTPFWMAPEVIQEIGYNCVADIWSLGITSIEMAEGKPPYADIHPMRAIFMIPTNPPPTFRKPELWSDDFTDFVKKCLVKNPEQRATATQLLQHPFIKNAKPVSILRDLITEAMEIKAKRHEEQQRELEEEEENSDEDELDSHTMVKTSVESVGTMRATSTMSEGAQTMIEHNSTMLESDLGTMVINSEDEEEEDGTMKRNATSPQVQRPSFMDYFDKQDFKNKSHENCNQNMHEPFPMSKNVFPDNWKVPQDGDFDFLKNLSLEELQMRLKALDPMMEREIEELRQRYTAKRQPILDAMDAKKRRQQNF
In short: (§1)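 Kinase + substrate/ATP/metal + cpd, 20 mM HEPES pH 7.5, 0.01% Triton X100, 2 mM DTT; RT, 1 or 5 h depending on kinase; stop buffer; LabChip peptide separation; % inh from P/(P+S) vs enzyme(−) and complete-reaction controls.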

KIT(D816E) = biological target: T2, KIT(D816E) (Homo sapiens, UniProt P10721, D816E); conditions: inhibitor concentration 1 μM
T2 construct: purchased Carna Biosciences
T2 sequence (P10721 26-976 D816E): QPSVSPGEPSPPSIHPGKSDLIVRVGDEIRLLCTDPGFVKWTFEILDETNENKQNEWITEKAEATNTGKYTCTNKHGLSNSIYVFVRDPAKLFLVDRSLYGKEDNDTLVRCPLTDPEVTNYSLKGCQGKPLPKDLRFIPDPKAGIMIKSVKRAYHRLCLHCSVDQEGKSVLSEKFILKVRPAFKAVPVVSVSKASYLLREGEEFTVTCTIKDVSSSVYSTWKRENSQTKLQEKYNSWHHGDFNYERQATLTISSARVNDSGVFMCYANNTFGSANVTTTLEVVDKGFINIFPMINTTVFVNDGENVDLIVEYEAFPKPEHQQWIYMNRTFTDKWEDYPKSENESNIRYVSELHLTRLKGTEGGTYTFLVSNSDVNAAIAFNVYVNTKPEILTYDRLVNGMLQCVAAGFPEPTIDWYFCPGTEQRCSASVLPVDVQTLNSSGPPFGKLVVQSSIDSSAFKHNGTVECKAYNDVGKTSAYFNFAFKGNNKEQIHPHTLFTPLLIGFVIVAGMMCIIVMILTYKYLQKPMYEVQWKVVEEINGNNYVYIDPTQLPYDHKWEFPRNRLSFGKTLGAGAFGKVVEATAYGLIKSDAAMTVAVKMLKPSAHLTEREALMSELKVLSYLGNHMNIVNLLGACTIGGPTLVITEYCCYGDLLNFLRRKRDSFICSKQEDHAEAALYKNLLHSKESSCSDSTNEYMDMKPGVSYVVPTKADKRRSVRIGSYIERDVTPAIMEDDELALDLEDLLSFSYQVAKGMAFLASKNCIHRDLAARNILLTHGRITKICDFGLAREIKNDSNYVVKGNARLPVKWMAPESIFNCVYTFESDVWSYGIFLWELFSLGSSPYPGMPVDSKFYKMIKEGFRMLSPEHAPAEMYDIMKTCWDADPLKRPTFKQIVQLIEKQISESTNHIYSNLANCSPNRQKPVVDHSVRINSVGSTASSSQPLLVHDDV
In short: as §1

PKD3 = biological target: T3, PKD3 (Homo sapiens, UniProt O94806); conditions: inhibitor concentration 1 μM
T3 construct: purchased Carna Biosciences
T3 sequence (O94806 whole entry): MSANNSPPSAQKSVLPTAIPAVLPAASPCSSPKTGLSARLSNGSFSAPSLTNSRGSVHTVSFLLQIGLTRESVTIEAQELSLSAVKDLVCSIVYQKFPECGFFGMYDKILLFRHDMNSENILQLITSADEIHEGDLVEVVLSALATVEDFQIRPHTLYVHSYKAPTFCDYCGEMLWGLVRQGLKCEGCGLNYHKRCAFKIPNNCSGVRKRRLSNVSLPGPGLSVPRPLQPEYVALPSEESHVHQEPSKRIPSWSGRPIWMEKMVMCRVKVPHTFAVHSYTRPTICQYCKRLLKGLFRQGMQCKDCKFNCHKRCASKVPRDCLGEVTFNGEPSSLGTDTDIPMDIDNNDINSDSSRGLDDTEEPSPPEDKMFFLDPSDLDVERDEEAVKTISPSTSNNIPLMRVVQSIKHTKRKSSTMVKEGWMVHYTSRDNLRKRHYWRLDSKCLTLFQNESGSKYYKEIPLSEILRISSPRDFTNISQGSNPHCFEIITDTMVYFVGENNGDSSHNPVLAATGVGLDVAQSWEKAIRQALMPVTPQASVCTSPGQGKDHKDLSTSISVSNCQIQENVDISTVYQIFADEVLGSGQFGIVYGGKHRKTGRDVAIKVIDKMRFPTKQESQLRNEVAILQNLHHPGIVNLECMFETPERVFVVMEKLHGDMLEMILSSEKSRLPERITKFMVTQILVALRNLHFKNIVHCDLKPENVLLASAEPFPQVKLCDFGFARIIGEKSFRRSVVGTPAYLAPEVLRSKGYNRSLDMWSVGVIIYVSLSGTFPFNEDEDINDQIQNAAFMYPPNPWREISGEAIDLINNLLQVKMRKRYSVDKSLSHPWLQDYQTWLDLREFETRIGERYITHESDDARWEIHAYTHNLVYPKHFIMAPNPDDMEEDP
In short: as §1

MAP2K4 = biological target: T4, MAP2K4 (Homo sapiens, UniProt P45985); conditions: inhibitor concentration 1 μM
T4 construct: purchased Carna Biosciences
T4 sequence (P45985 whole entry): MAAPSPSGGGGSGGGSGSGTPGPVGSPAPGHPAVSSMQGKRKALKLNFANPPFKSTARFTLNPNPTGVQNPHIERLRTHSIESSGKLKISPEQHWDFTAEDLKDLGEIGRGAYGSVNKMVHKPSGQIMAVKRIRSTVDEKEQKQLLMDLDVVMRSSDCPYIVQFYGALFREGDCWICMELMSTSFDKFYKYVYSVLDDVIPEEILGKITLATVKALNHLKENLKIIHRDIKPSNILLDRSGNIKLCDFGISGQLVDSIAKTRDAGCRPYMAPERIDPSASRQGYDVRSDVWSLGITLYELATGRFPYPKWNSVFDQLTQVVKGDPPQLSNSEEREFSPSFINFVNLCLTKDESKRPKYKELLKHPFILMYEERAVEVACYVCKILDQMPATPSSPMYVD
In short: as §1

YES = biological target: T5, YES (Homo sapiens, UniProt P07947)
T5 construct: purchased Carna Biosciences
T5 sequence (P07947 whole entry): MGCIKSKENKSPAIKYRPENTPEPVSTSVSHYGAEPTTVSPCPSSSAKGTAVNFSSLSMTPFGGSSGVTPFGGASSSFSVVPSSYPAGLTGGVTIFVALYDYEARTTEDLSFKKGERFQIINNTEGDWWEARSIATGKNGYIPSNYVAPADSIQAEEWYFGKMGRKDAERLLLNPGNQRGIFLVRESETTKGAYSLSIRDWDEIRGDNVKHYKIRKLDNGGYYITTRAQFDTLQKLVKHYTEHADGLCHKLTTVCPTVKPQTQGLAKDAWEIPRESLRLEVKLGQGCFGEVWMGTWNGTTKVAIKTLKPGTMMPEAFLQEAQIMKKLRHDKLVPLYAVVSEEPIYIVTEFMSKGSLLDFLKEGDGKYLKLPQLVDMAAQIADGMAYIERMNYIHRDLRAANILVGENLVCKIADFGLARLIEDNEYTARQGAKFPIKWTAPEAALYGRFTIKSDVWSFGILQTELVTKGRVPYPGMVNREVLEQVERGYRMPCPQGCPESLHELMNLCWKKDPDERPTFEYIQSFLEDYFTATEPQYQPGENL
In short: as §1

CSK = biological target: T6, CSK (Homo sapiens, UniProt P41240)
T6 construct: purchased Carna Biosciences
In short: as §1

[1] = inhibitor concentration 0.01 μM

inhibition at 0.01 µM (MST2; [1]): < 30%
inhibition at 0.1 µM (MST2; inhibitor concentration 0.1 μM): < 50%
inhibition at 1 µM (MST2; inhibitor concentration 1 μM): > 50%
inhibition at 1 µM (KIT(D816E)): > 50%
inhibition at 1 µM (PKD3): < 50%
inhibition at 1 µM (MAP2K4): < 50%
inhibition at 0.01 µM (YES; [1]): < 30%
inhibition at 0.1 µM (YES; inhibitor concentration 0.1 μM): > 50%
inhibition at 1 µM (YES; inhibitor concentration 1 μM): > 50%
inhibition at 0.01 µM (CSK; [1]): < 30%
inhibition at 0.1 µM (CSK; inhibitor concentration 0.1 μM): > 50%
inhibition at 1 µM (CSK; inhibitor concentration 1 μM): > 50%
Structure (SMILES): O=C(c1c(F)ccc(NS(=O)(=O)CCCO)c1F)c1c[nH]c2ncc(-c3ccc(Cl)cc3)cc12 [200-17, N-[3-[5-(4-chlorophenyl)-1H-pyrrolo[2,3-b]pyridine-3-carbonyl]-2,4-difluorophenyl]-3-hydroxypropane-1-sulfonamide]
